# Experimental data published in US7550438B2, “Methods for production of growth-promoting proteins and peptides for kidney epithelial cells” (The University of Chicago, priority 1997, dated 2009).
# Tests used:
# Assay type in all cases: in vivo, rat
# [1] = tested on: rats with mercuric chloride-induced acute renal failure; assay: Mercuric chloride-induced acute renal failure in rats: survival and renal function; conditions: for survival 7 days later: single dose s.c. 1 hour after mercuric chloride
# From the text: Nephrotoxic and ischemic acute renal failure (ARF) induced experimentally in rats have long been used to model this syndrome in humans. […] Male rats weighed 200-225 gm at the start of the experiment. This dose was used because preliminary experiments indicated it results in survival of 25-50% of the animals 7 days later. […] An increase in serum creatinine concentration signals a decline in renal function because the injured kidney is unable to excrete endogenous creatinine in the urine so it accumulates in the blood.
# The synthetic peptide […] (14-Ser) (SEQ ID NO: 15) (dissolved in sterile 0.01% bovine serum albumin in phosphate-buffered saline) was injected subcutaneously into rats to determine its effect on survival, recovery of renal fucntion, and stimulation of DNA synthesis. Multiple different peptides were studied including 14-Ser, […] (14-mer) (SEQ ID NO: 39), […] (16-mer) (SEQ ID NO: 4) […] (11-mer) (SEQ ID NO: 6), and […] (11-mer) (SEQ ID NO: 41). Different concentrations and times of administration were tested and compared.
# Acute tubular necrosis was induced in 44 rats by the subcutaneous (s.c.) injection of mercuric chloride, and a single dose of 14-ser was administered s.c. 1 hour afterwards. Different amounts of the peptide were given to assesses its capacity to affect the outcome. Survival 7 days later was about twice as high in animals given 100-150 μg of peptide (63%) than in rats given 0-75 μg peptide (29%).
# To determine the effect of the peptide on survival and recovery of renal function, acute tubular necrosis was induced in 59 rats; 29 received 14-Ser (100 μg/rat) and 30 received an equal volume of the vehicle s.c. 1 hour after administration of mercuric chloride. Enhanced survival (top panel) and renal functional recovery (bottom panel) of rats give a WGF-derived peptide after mercuric chloride-induced acute tubular necrosis are shown in FIG. 2A and FIG. 2B. Mercuric chloride was injected subcutaneously into each of the 59 rats, and 1 hour later 100 μg of WGF peptide (14-Ser) (n=29 rats) or the vehicle […] was given. Survival was greater in rats given the peptide than in animals receiving the vehicle as early as day 3 after administration of mercuric chloride. Blood was obtained from the tail vein on the days indicated, and serum creatinine concentration was measured. […] On days 2, 3 and 4, the lower creatinine concentration in peptide-treated rats indicates accelerated recovery of kidney function.
# Experimental ARF was induced in rats by subcutaneous injection of mercuric chloride. The synthetic peptide […] […] In one experiment a total of 17 rats were injected with a dose of mercuric chloride shown to induce ARF. The different amounts of the peptide (known to stimulate growth of kidney cells in culture) were injected into the animals to assess capacity to improve the outcome. […] In contrast, two of three rats given 100 micrograms of peptide were alive, as were five of six given 200 micrograms. In summary, none of eight rats (0%) given up to 50 micrograms of peptide survived, whereas seven of nine (78%) given 100-200 micrograms did. Thus, the 11-mer WGF peptide improves survival in nephrotoxic ARF.
# […] Four days later, 63% of rats given the 14-Ser peptide were alive compared to 25% of animals receiving the vehicle (chi squared, P-0.0499); 50% of rats receiving EGF were alive (chi squared, P=N.S.). On day 5, 50% of rats given EGF were alive, compared to 12.5% of animals given the vehicle (chi squared, P=0.0436). […] These observations indicate that the 14-Ser peptide and EGF given after renal injury are similar in their ability to improve survival from the ARF syndrome.
# [2] = tested on: kidneys of rats given mercuric chloride; assay: BrdU labeling of DNA synthesis in kidneys of rats given mercuric chloride; conditions: 14-Ser 100 μg 24 hours before mercuric chloride; 1 hour BrdU labeling 24 hours after
# Method: To determine if the beneficial effects of 14-Ser peptide on survival and renal function were the result of the mitogenic action of the peptide, DNA synthesis was measured in the kidneys of rats given mercuric chloride. 5-Bromo-2′-deoxyuridine (BrdU), a nonradioactive analog of thymidine that is incorporated into DNA was used to label nuclei. A monoclonal antibody to BrdU and diamidobenzidene staining were used to detect nuclei undergoing DNA synthesis in histological sections of renal tissue. BrdU was dissolved in 20% ethanol and was injected intra-peritoneally 23 hours after administration of mercuric chloride. One hour later the kidneys were quickly perfused with a warm solution of phosphate-buffered saline via an aortic catheter to eliminate red blood cells from the organ and maintain potency of the renal tubules. The capsule was removed from the kidneys which were the bisected longitudinally, and fixed in formalin for 4 hours, and then in 70% ethanol. Tissue sections were prepared and BrdU-labeled nuclei were detected as described above.
# In the kidneys of a rats given mercuric chloride, extensive necrosis of tubular cells of the terminal portion (S3) of the proximal nephron was observed, as expected in this well-characterized model system. The extent of necrosis was somewhat variable from rat-to-rat but was always confined to the aglomerular cortex. […]
# [3] = tested on: rats with mercuric chloride-induced acute renal failure; assay: Mercuric chloride-induced acute renal failure in rats: survival and renal function; conditions: given 24 hours before mercuric chloride (EGF 20 μg, s.c.)
sequence,measurement,setting,value
AQPYPQGNHEASYG,survival 7 days later,[1]; 0-75 μg peptide,29%
same,recovery of renal function on days 3 and 4,[1]; 100 μg/rat s.c. 1 hour after mercuric chloride,significantly more rapid recovery
same,serum creatinine concentration on day 2 compared to vehicle,"[1]; 100 μg/rat s.c. 1 hour after mercuric chloride, P=0.034",significantly lower
same,serum creatinine concentration on day 1,"[1]; 100 μg/rat s.c. 1 hour after mercuric chloride, basal 0.5, similar with vehicle",2.3 mg/dL
same,survival compared to vehicle 3 days after onset of ARF,"[1]; 100 μg/rat s.c. 1 hour after mercuric chloride, chi squared P=0.035",significantly greater
same,survival by day 7,"[1]; 100 μg/rat s.c. 1 hour after mercuric chloride, vehicle 20%",48%
same,survival on day 6,"[1]; 14-Ser 100 μg 1 hour after, EGF 20 μg 2 hours after mercuric chloride, vehicle 12%",37.5%
same,survival four days later,"[1]; 14-Ser 100 μg s.c. 1 hour after, EGF 20 μg s.c. 2 hours after mercuric chloride 2.25 mg/kg, vehicle 25%",63%
same,survival 7 days later,[1]; 100-150 μg of peptide,63%
same,renal function (serum creatinine) on day 3 compared to vehicle,"[1]; given 24 hours before mercuric chloride, P=0.039",significantly better
same,BrdU-labeled nuclei adjacent to the zone of tubular cell necrosis,[2],many more labeled nuclei
same,survival on day 4,[3]; listed as 14-Ser,71%
same,survival on day 4,[3]; listed as 14-Ser WGF-derived peptide,73%
